Assay results: paper PMC11491487 (Nature Communications, 2024)

How the values were obtained:
[1] = target: chiRyR (Oryctolagus cuniculus, UniProt P11716, C4657I/F4564Y/L4792S/R4563K); assay: biochemical; format: biochemical, rabbit; details: Ca2+-dependent [3H]ryanodine binding, mean ± SD, n=4
[2] = target: chiRyR-I4657M/G4819E (Oryctolagus cuniculus, UniProt P11716, C4657M/F4564Y/G4819E/L4792S/R4563K); assay: biochemical; format: biochemical, rabbit; details: Ca2+-dependent [3H]ryanodine binding, mean ± SD, n=4

[Ca+2] [Ca2+]
IC50 [1]: 670 ± 370 µM | EC50 ([1]; read-out: EC50 values for Ca2+): 5 ± 1.1 µM | IC50 [2]: 590 ± 190 µM | EC50 ([2]; read-out: EC50 values for Ca2+): 4.4 ± 2.4 µM
